25 compounds from ChEMBL document CHEMBL5223141, “New cycloalkyl[b]thiophenylnicotinamide-based α-glucosidase inhibitors as promising anti-diabetic agents: Synthesis, in silico study, in vitro and in vivo evaluations” (Bioorg Med Chem Lett, 2023) can be followed below.

Molecules are shown by their SMILES. Active and inactive are the calls of the source. The calls are words filed in the database; no cut-off is given here.

The target of data set [1] is Maltase-glucoamylase (Homo sapiens) (UniProt O43451). Nature of the data set: Inhibition of alpha-glucosidase (unknown origin) at 100 uM relative to control.
A further data set relates to HepG2. The experiment in a line: Cytotoxicity against human HepG2 cells at 100 uM by MTT assay. In kind it is toxicity, cell-based. To be noted: hepg2, 100 µM.
The test system of another data set is L02. The experiment in a line: Cytotoxicity against human L02 cells at 100 uM by MTT assay. To be noted: l02, 100 µM. The format is toxicity, cell-based. Background: Tetrazolium assays rely on reduction of a dye to a coloured formazan, in cell work by metabolically active cells.
The target of another data set is T1, Alpha amylase (Homo sapiens, UniProt P0DUB6).
T1 sequence (P0DUB6 whole entry): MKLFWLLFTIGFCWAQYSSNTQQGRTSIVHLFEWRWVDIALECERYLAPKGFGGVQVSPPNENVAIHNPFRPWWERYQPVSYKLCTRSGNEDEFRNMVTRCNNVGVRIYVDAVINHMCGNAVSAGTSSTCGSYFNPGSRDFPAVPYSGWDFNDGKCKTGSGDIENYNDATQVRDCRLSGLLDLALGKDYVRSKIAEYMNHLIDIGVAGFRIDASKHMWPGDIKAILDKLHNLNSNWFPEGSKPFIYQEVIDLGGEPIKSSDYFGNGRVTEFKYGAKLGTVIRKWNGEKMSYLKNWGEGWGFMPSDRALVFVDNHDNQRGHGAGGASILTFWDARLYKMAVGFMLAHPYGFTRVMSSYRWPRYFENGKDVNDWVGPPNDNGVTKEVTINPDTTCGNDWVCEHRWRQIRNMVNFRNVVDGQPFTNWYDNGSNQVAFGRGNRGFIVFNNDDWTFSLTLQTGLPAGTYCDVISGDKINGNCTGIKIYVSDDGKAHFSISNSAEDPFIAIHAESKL
The experiment in a line: Inhibition of alpha-amylase (unknown origin).

The species entered for another data set is Homo sapiens. Nature of the data set: Selectivity ratio of IC50 for alpha-amylase (unknown origin) to IC50 for alpha-glucosidase (unknown origin).
For data set [2], the system named is Rattus norvegicus. The experiment in a line: Anti-hyperglycemic activity in sucrose loaded Sprague-Dawley rat assessed as blood glucose level at 5 mg/kg, po measured at 30 mins by oral sucrose tolerance test (reference value: 10.80+/-0.92 mmol/L). The format is functional. To be noted: 0.5 h.
In data set [3] the test system is Rattus norvegicus. Nature of the data set: Anti-hyperglycemic activity in sucrose loaded Sprague-Dawley rat assessed as decrease in blood glucose level at 5 mg/kg, po measured after 45 mins by oral sucrose tolerance test. The format is functional. Particulars: 0.75 h.
Data set [4] concerns the target Maltase-glucoamylase (Homo sapiens) (UniProt O43451). Nature of the data set: Inhibition of alpha-glucosidase (unknown origin) assessed as increase in intrinsic fluorescence emission. To be noted: dose 0-100 µM.
The target is the same in data set [5]. The experiment in a line: Mixed type inhibition of alpha-glucosidase (unknown origin) assessed as decrease in Vmax by measuring increase in slope using pNPG as substrate at upto 25 uM by Lineweaver-Burk plot analysis.
For data set [6] the target is unchanged. The experiment in a line: Mixed type inhibition of alpha-glucosidase (unknown origin) assessed as increase in Km by measuring increase in intercept using pNPG as substrate at upto 25 uM by Lineweaver-Burk plot analysis.

Sequence of Maltase-glucoamylase (Homo sapiens) (O43451 whole entry, looked up): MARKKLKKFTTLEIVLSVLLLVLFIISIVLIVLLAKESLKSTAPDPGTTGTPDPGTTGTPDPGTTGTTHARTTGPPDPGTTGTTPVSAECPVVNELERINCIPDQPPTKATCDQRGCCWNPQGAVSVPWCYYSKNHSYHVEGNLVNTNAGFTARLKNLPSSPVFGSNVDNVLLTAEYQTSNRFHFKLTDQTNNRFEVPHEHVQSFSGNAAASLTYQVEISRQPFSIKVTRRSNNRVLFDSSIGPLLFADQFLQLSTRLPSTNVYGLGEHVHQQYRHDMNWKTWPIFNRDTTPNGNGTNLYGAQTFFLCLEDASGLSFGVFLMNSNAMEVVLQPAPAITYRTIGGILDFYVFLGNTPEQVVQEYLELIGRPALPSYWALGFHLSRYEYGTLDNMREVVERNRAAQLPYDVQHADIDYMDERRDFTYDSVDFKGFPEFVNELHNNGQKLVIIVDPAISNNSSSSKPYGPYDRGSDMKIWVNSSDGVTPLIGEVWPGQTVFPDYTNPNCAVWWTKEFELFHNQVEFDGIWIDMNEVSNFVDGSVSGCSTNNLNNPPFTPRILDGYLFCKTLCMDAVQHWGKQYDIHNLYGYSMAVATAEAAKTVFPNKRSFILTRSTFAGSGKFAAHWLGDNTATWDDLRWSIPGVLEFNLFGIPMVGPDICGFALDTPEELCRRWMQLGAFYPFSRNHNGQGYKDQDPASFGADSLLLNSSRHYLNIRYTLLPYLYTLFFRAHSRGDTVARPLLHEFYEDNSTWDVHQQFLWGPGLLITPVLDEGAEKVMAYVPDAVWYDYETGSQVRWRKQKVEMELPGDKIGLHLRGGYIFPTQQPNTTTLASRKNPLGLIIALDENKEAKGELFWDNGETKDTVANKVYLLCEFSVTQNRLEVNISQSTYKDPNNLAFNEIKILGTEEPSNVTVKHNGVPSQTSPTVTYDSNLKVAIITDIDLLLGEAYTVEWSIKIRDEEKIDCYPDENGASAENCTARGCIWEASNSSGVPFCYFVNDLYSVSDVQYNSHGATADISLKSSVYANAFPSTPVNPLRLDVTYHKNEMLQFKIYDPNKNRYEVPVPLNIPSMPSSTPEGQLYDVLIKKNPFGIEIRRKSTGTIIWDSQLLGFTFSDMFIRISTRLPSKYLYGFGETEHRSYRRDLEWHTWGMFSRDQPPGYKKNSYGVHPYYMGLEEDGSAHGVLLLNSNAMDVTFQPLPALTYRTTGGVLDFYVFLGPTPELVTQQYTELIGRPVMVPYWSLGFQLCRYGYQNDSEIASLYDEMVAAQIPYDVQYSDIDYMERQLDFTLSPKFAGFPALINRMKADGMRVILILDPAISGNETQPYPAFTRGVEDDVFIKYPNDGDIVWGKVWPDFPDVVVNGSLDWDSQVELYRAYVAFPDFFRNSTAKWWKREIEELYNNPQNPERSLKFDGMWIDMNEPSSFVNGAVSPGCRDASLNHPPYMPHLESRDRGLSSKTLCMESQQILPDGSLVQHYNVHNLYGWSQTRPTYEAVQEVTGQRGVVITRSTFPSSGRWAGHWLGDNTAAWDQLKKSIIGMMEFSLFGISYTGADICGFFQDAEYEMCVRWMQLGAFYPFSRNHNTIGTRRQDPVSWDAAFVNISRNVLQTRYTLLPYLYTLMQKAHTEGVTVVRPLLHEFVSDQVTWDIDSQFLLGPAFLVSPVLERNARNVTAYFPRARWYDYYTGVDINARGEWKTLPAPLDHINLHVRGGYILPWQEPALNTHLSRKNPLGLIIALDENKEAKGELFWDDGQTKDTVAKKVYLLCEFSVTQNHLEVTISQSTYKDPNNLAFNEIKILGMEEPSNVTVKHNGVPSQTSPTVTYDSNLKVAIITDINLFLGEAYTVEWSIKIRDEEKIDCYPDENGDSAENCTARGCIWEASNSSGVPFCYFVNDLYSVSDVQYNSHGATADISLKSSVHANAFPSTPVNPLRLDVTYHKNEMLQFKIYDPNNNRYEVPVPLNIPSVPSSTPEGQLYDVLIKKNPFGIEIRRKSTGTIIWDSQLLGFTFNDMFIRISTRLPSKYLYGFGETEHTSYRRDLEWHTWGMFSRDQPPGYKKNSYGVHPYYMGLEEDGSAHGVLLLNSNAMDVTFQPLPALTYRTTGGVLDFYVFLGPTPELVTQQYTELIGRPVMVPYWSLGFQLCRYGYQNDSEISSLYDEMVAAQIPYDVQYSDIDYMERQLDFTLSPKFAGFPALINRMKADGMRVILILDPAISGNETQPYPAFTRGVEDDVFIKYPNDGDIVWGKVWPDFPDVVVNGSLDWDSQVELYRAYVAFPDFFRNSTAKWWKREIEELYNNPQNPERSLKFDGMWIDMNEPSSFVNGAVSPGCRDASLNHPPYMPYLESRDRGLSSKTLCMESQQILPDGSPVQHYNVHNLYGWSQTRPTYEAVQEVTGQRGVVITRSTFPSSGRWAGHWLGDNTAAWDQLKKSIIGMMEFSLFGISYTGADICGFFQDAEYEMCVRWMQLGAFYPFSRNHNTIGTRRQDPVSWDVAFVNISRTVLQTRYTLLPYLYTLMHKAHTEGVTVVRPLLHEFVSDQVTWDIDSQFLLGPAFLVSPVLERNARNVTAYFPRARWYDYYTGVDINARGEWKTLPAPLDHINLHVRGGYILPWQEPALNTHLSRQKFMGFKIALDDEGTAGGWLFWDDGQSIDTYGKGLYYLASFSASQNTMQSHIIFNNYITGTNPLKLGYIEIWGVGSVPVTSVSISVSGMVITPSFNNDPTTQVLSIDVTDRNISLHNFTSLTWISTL

`O=C(Nc1sc2c(c1C(=O)NCc1cccnc1)CCC2)c1cccnc1`: the inhibition in data set [1] was found to be 12.5%. Also, the Activity entry with HepG2 and with L02 was “Non-Toxic” each time.

The compound `O=C(Nc1sc2c(c1C(=O)NCc1ccccc1)CCCCC2)c1cccnc1` showed an inhibition in data set [1] of 59%.

For `O=C(Nc1sc2c(c1C(=O)NCc1ccccc1)CCCC2)c1cccnc1`, in data set [1], the inhibition was determined as 64.4%. The IC50 on Alpha amylase is 76.1 µM. Also, the Ratio IC50 in the data set filed under Homo sapiens is 1.7. Also, the Activity entry in the data set with HepG2 and in the data set with L02 was “Non-Toxic” in each case.

In the case of `COC(=O)c1ccc(CNC(=O)c2c(NC(=O)c3cccnc3)sc3c2CCC3)cc1`, the inhibition in data set [1] came to 21.9%. Also, the Activity result with HepG2 and with L02 was “Non-Toxic” throughout.

Compound `COc1ccc(CNC(=O)c2c(NC(=O)c3cccnc3)sc3c2CCCCC3)cc1` showed an inhibition in [1] of 44.1%.

Compound `O=C(Nc1sc2c(c1C(=O)NCc1ccccn1)CCCC2)c1cccnc1` returned an inhibition in [1] of 57.2%. Also, at Alpha amylase, the 50% inhibitory concentration (IC50) is 94.8 µM. Further, in the data set listed under Homo sapiens, the Ratio IC50 amounted to 1.5. The Activity result in the data set with HepG2 and in the data set on L02 was “Non-Toxic” each time.

The compound `COc1cc(CNC(=O)c2c(NC(=O)c3cccnc3)sc3c2CCC3)ccc1O` yielded an inhibition in data set [1] of 50.6%. For the same compound, the Activity entry with HepG2 and in the data set with L02 was “Non-Toxic” in each case.

In data set [1], `COc1ccc(CNC(=O)c2c(NC(=O)c3cccnc3)sc3c2CCC3)cc1` gave an inhibition of 55.4%. Moreover, the Activity entry in the data set on HepG2 and in the data set on L02 was “Non-Toxic” each time.

Consider `O=C(Nc1sc2c(c1C(=O)NCc1ccncc1)CCC2)c1cccnc1`, for which the inhibition in data set [1] is 1.1%. In addition, the Activity entry in the data set on HepG2 and with L02 was “Non-Toxic” throughout.

In the case of `O=C(Nc1sc2c(c1C(=O)NCc1ccccn1)CCC2)c1cccnc1`, in [1], the inhibition worked out at 30.5%. Besides, the Activity entry with HepG2 and in the data set on L02 was “Non-Toxic” throughout.

Take `COc1cc(CNC(=O)c2c(NC(=O)c3cccnc3)sc3c2CCCCC3)ccc1O`: in data set [1], the inhibition was 81.7%.

Turning to `O=C(Nc1sc2c(c1C(=O)NCc1ccccc1)CCC2)c1cccnc1`, in data set [1], the inhibition was determined as 56.6%. In addition, the Activity entry in the data set with HepG2 and with L02 was “Non-Toxic” in each case.

The compound `COC(=O)c1ccc(CNC(=O)c2c(NC(=O)c3cccnc3)sc3c2CCCCC3)cc1` registered an inhibition in [1] of 18.1%.

In the case of `O=C(Nc1sc2c(c1C(=O)NCc1ccccn1)CCCCC2)c1cccnc1`, the inhibition in data set [1] is 26.8%.

In data set [1], `COc1cc2c(cc1OC)CN(C(=O)c1c(NC(=O)c3cccnc3)sc3c1CCCC3)CC2` displayed an inhibition of 42.2%.

`O=C(Nc1sc2c(c1C(=O)NCc1cccnc1)CCCC2)c1cccnc1` had an inhibition in data set [1] of 62.7%. At Alpha amylase, this compound showed a half-maximal inhibitory concentration (IC50) of 48.1 µM. Also, the Ratio IC50 in the data set filed under Homo sapiens is 0.9. Further, the Activity entry in the data set with HepG2 and with L02 was “Non-Toxic” each time.

In [1], `COC(=O)c1ccc(CNC(=O)c2c(NC(=O)c3cccnc3)sc3c2CCCC3)cc1` came in with an inhibition of 58.2%. Moreover, the half-inhibitory concentration (IC50) on Alpha amylase amounted to 66.9 µM. Moreover, the Ratio IC50 in the data set listed under Homo sapiens came out at 0.8. The Activity result in the data set on HepG2 and in the data set on L02 was “Non-Toxic” in each case.

Take `C[C@H]1O[C@H](O[C@H]2[C@H](O)[C@@H](O)[C@@H](O[C@H]3[C@H](O)[C@@H](O)C(O)O[C@@H]3CO)O[C@@H]2CO)[C@H](O)[C@@H](O)[C@@H]1N[C@H]1C=C(CO)[C@@H](O)[C@H](O)[C@H]1O` (stereo partly drawn) [ACARBOSE]: the Activity entry in the data set on HepG2 was “Non-Toxic”; in the data set with L02 it was “Non-Toxic”; in the data set with Rattus norvegicus [2], 9.57 mmol/L; in the data set with Rattus norvegicus [3], 9.89 mmol/L.

`O=C(Nc1sc2c(c1C(=O)NCc1cccnc1)CCCCC2)c1cccnc1`: in data set [1], the inhibition stood at 26.5%.

Turning to `COc1cc2c(cc1OC)CN(C(=O)c1c(NC(=O)c3cccnc3)sc3c1CCC3)CC2`, the inhibition in [1] turned out to be 23.2%. Besides, the Activity result in the data set with HepG2 and in the data set with L02 was “Non-Toxic” in each case.

For the compound `O=C(Nc1sc2c(c1C(=O)NCc1ccncc1)CCCC2)c1cccnc1`, the inhibition in data set [1] was 44.1%.

Turning to `COc1ccc(CNC(=O)c2c(NC(=O)c3cccnc3)sc3c2CCCC3)cc1`, the inhibition in data set [1] turned out to be 78.1%. The IC50 at Alpha amylase was found to be 80.4 µM. Besides, the Ratio IC50 in the data set listed under Homo sapiens was found to be 2.7. The Activity result with HepG2 and in the data set on L02 was “Non-Toxic” throughout.

On to `COc1cc2c(cc1OC)CN(C(=O)c1c(NC(=O)c3cccnc3)sc3c1CCCCC3)CC2`, for which, in [1], the inhibition came to 29.1%.

Take `COc1cc(CNC(=O)c2c(NC(=O)c3cccnc3)sc3c2CCCC3)ccc1O`: in data set [1], the inhibition came to 93.6%. The compound further had an IC50 against Alpha amylase of 72.9 µM. The Ratio IC50 in the data set listed under Homo sapiens was 7.4. Besides, the Activity result in [4] is “Dose-Dependent Effect”; in the data set on HepG2, “Non-Toxic”; with L02, “Non-Toxic”; in the data set with Rattus norvegicus [2], 9.73 mmol/L; in the data set with Rattus norvegicus [3], 9.9 mmol/L. The result in [5] and in data set [6] was Active.

On to `O=C(Nc1sc2c(c1C(=O)NCc1ccncc1)CCCCC2)c1cccnc1`, for which the inhibition in data set [1] was found to be 9.2%.

Broadly, the inhibition is the share of the control response that was lost under treatment. Low readings indicate a weak effect, high ones a strong effect. One may read the IC50 as the concentration that gives 50% inhibition. Higher therefore signals lower potency.
